Reference: patent publication US20150305367A1, “FROZEN CONFECTION” (CONOPCO, INC., D/B/A UNILEVER, priority 2012, published 2015)

Assays:
recombinant human MAO-B = target: T1, recombinant human MAO-B (Homo sapiens, UniProt P27338); experiment: MAO-Glo chemiluminescent MAO-B inhibition assay; type: biochemical; settings: for MAO-B inhibition (Yes/No): overall verdict over 1, 10 and 100 μM; for inhibition at 1 µM: test concentration 1 μM; for inhibition at 1 µM / inhibition at 10 µM / inhibition at 100 µM: mean ± standard deviation, triplicate, 90 min incubation; for inhibition at 10 µM: test concentration 10 μM; for inhibition at 100 µM: test concentration 100 μM;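 as to all read-outs here: MAO-B from microsomes of baculovirus-infected insect cells, luciferin-based luminescence read-out, inhibition relative to enzyme activity with DMSO vehicle alone and no inhibitor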
T1 construct: purchased Sigma-Aldrich; host or cells: baculovirus-infected insect cells (microsomes)
T1 sequence (P27338 1-520): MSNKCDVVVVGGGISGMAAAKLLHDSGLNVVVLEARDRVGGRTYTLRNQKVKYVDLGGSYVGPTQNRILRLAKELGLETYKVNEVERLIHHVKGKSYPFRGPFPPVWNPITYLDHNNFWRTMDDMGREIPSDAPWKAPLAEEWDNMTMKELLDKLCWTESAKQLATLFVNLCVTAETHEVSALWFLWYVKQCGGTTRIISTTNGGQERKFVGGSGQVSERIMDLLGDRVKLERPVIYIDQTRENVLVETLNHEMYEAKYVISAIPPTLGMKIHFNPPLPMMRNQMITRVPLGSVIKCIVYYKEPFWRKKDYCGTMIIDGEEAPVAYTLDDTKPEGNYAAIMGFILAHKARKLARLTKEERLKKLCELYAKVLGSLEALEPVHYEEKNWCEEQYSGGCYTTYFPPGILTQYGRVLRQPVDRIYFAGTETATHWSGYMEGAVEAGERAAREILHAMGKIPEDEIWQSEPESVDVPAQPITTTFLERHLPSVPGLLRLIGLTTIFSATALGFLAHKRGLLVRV

[1] = measured in vivo in rat brain; cited from earlier work

## O=Cc1ccc2c(c1)OCO2 [Piperonal]
Recombinant human MAO-B
  MAO-B inhibition (Yes/No): Yes
  inhibition at 1 µM: 10 ± 2.9%
  inhibition at 10 µM: 53 ± 4%
  inhibition at 100 µM: 100%

## CC1=C(O)C(=O)C(C)O1 (stereo not drawn) [4-Hydroxy-2,5-dimethyl-3(2H)-furanone]
Recombinant human MAO-B
  MAO-B inhibition (Yes/No): No
  inhibition at 1 µM: 0%
  inhibition at 10 µM: 9 ± 3.3%
  inhibition at 100 µM: 7 ± 11.7%

## COc1cc(C(=O)O)ccc1O [Vanillic acid]
Recombinant human MAO-B
  MAO-B inhibition (Yes/No): No
  inhibition at 1 µM: 6 ± 4.2%
  inhibition at 10 µM: 5 ± 7.3%
  inhibition at 100 µM: 11 ± 3.3%

## O=Cc1ccc(O)c(O)c1 [3,4-Dihydroxybenzaldehyde]
Recombinant human MAO-B
  MAO-B inhibition (Yes/No): No
  inhibition at 1 µM: 0%
  inhibition at 10 µM: 4 ± 5.1%
  inhibition at 100 µM: 9 ± 3.6%

## CC(=O)C(C)O (stereo not drawn) [3-Hydroxy-2-butanone]
Recombinant human MAO-B
  MAO-B inhibition (Yes/No): No
  inhibition at 1 µM: 11 ± 4.2%
  inhibition at 10 µM: 6 ± 5.2%
  inhibition at 100 µM: 7 ± 3.4%

## COc1cc(CO)ccc1O [Vanillyl Alcohol]
Recombinant human MAO-B
  MAO-B inhibition (Yes/No): No
  inhibition at 1 µM: 2 ± 4%
  inhibition at 10 µM: 9 ± 3%
  inhibition at 100 µM: 6 ± 5.1%

## C=CCc1ccc(O)c(OC)c1 [Eugenol]
Recombinant human MAO-B
  MAO-B inhibition (Yes/No): No
  inhibition at 1 µM: 0%
  inhibition at 10 µM: 4 ± 4.6%
  inhibition at 100 µM: 0%

## COc1ccc(C=O)cc1 [4-Methoxybenzaldehyde]
Recombinant human MAO-B
  MAO-B inhibition (Yes/No): Yes
  inhibition at 1 µM: 0%
  inhibition at 10 µM: 11 ± 3.8%
  inhibition at 100 µM: 75 ± 1.9%

## OCc1ccc(O)cc1 [4-Hydroxybenzyl alcohol]
Recombinant human MAO-B
  MAO-B inhibition (Yes/No): No
  inhibition at 1 µM: 1 ± 7.9%
  inhibition at 10 µM: 0%
  inhibition at 100 µM: 6 ± 8.1%

## CCOc1cc(C=O)ccc1O [Ethyl vanillin]
Recombinant human MAO-B
  MAO-B inhibition (Yes/No): No
  inhibition at 1 µM: 0%
  inhibition at 10 µM: 0%
  inhibition at 100 µM: 4 ± 5.3%

## COc1cc(/C=C/C(=O)O)ccc1O [Ferulic acid]
Recombinant human MAO-B
  MAO-B inhibition (Yes/No): No
  inhibition at 1 µM: 4 ± 1.2%
  inhibition at 10 µM: 9 ± 1.7%
  inhibition at 100 µM: 4 ± 7%

## O=C(/C=C/c1ccccc1)OCc1ccccc1 [Benzyl cinnamate]
Recombinant human MAO-B
  MAO-B inhibition (Yes/No): Yes
  inhibition at 1 µM: 10 ± 6.4%
  inhibition at 10 µM: 63 ± 3.1%
  inhibition at 100 µM: 100%

## COc1ccc(C=O)cc1OC [Veratraldehyde]
Recombinant human MAO-B
  MAO-B inhibition (Yes/No): No
  inhibition at 1 µM: 1 ± 1.5%
  inhibition at 10 µM: 2 ± 6.6%
  inhibition at 100 µM: 0%

## COc1cc(C=O)ccc1O [Vanillin]
Recombinant human MAO-B
  inhibition at 100 µM: 19 ± 5.6%

## NCCc1ccccc1 [phenylethylamine, Phenylethylamine]
[1]
  endogenous pool half-life: approximately 30 s

## O=Cc1ccc(O)cc1 [4-Hydroxybenzaldehyde]
Recombinant human MAO-B
  MAO-B inhibition (Yes/No): Yes
  inhibition at 1 µM: 10 ± 3.2%
  inhibition at 10 µM: 6 ± 4.7%
  inhibition at 100 µM: 27 ± 5.1%

## COc1ccccc1O [2-Methoxyphenol]
Recombinant human MAO-B
  MAO-B inhibition (Yes/No): No
  inhibition at 1 µM: 0%
  inhibition at 10 µM: 0%
  inhibition at 100 µM: 0%

## O=C(O)/C=C/c1ccc(O)cc1 [Coumaric acid]
Recombinant human MAO-B
  inhibition at 1 µM: 11 ± 4.2%
  inhibition at 10 µM: 16 ± 2.8%
  inhibition at 100 µM: 17 ± 7.3%

## O=C(O)c1ccc(O)cc1 [4-Hydroxybenzoic acid]
Recombinant human MAO-B
  MAO-B inhibition (Yes/No): No
  inhibition at 1 µM: 13 ± 3.2%
  inhibition at 10 µM: 9 ± 5.2%
  inhibition at 100 µM: 11 ± 5.7%
